Assay results as given in ChEMBL document CHEMBL1150977, “A quantitative analysis of kinase inhibitor selectivity” (Nat Biotechnol, 2008).

Tests used:
[1] = biological target: Receptor-type tyrosine-protein kinase FLT3 (Homo sapiens, UniProt P36888, D835Y)
[2] = biological target: Tyrosine-protein kinase Fgr (Homo sapiens, UniProt P09769)
[3] = biological target: T1, Protein kinase C epsilon type (Homo sapiens, UniProt Q02156)
T1 sequence (Q02156 whole entry): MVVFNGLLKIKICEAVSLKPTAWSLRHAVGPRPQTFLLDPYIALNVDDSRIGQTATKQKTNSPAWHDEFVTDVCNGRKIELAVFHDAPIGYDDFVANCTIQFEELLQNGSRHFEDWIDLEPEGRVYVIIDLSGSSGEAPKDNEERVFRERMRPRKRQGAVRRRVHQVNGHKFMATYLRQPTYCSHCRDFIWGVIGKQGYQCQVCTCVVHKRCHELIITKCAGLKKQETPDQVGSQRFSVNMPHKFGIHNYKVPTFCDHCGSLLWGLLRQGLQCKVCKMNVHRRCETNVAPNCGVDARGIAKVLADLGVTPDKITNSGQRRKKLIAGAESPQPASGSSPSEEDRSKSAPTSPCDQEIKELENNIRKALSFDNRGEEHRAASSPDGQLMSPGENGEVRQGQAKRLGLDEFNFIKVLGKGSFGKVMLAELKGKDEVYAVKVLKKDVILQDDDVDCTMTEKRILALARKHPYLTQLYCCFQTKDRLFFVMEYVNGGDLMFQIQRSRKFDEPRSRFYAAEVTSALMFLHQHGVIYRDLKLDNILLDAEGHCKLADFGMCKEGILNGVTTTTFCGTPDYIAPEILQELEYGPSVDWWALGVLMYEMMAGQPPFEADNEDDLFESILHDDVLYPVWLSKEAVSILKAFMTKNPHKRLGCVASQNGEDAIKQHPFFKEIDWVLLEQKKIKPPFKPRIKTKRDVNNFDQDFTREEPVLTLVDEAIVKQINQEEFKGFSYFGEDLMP

[4] = biological target: Mast/stem cell growth factor receptor Kit (Homo sapiens, UniProt P10721, V559D)
Mast/stem cell growth factor receptor Kit, sequence (P10721 26-976 V559D limits assumed): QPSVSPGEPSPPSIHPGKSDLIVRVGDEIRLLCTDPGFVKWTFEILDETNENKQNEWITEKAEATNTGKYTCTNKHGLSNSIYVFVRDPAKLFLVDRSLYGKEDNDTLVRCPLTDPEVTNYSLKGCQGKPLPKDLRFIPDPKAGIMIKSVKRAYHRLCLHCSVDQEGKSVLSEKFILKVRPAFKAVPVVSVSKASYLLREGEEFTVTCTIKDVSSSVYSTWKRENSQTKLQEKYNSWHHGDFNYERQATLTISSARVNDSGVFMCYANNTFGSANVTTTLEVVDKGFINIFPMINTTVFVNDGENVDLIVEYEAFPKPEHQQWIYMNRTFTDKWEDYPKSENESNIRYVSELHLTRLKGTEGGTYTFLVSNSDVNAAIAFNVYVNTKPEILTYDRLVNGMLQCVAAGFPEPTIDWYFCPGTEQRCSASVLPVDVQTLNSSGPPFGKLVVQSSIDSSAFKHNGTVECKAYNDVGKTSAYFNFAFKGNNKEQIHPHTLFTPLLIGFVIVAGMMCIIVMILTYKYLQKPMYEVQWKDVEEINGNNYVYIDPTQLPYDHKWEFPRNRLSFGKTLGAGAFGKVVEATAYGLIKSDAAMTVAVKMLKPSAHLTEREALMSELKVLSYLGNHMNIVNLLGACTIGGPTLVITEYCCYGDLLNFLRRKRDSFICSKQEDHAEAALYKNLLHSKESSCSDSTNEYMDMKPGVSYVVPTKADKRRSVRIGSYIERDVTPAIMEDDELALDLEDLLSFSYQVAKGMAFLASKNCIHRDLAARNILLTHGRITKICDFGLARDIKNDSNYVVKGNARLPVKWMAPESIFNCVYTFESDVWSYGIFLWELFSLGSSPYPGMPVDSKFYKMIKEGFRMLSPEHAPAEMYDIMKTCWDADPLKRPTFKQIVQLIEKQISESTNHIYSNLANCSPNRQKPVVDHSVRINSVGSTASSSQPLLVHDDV

[5] = biological target: T2, Tyrosine-protein kinase Mer (Homo sapiens, UniProt Q12866)
T2 sequence (Q12866 whole entry): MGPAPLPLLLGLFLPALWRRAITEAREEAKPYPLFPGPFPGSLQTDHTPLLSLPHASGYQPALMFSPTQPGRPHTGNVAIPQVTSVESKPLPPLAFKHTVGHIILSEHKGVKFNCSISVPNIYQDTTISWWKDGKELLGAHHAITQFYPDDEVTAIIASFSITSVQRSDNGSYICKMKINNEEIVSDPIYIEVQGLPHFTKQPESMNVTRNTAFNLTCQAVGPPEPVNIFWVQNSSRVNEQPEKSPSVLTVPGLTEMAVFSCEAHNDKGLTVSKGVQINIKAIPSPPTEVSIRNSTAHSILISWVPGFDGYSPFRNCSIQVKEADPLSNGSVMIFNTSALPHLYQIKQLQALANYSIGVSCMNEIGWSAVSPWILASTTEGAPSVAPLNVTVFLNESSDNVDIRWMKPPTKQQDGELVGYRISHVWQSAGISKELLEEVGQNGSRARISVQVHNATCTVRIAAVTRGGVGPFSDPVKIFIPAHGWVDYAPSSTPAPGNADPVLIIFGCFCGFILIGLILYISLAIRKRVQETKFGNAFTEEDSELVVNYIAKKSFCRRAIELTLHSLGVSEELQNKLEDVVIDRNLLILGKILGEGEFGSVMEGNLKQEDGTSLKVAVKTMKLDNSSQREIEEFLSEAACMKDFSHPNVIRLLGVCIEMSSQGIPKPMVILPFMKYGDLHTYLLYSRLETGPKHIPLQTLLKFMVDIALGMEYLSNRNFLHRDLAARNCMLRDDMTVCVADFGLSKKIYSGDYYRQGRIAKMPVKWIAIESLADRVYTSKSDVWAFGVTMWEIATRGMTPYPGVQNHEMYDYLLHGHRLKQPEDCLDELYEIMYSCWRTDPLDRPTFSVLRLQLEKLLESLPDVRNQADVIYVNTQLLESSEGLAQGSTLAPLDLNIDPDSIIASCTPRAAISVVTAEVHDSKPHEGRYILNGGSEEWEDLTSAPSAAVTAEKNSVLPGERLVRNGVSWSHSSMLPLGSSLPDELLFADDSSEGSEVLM

[6] = biological target: Insulin receptor-related protein (Homo sapiens, UniProt P14616)
Insulin receptor-related protein, sequence (P14616 27-742 limits assumed): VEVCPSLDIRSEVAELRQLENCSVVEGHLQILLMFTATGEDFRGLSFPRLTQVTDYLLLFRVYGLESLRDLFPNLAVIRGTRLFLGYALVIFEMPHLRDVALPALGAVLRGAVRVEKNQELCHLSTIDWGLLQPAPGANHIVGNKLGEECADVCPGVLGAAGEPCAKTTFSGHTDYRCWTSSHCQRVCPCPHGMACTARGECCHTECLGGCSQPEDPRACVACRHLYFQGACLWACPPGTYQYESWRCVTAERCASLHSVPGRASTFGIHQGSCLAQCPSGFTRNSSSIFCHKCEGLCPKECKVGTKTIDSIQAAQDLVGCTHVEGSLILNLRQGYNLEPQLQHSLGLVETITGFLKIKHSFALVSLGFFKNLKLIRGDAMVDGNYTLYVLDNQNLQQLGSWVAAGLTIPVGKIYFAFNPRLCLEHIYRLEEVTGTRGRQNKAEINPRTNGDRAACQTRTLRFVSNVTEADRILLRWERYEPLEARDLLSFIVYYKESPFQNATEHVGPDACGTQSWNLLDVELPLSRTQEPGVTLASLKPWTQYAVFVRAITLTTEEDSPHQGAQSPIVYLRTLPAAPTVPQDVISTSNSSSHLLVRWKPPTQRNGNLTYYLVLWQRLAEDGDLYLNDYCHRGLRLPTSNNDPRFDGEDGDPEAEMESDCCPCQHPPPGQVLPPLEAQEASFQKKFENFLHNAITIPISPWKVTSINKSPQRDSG
Insulin receptor-related protein, sequence (P14616 747-1297 limits assumed): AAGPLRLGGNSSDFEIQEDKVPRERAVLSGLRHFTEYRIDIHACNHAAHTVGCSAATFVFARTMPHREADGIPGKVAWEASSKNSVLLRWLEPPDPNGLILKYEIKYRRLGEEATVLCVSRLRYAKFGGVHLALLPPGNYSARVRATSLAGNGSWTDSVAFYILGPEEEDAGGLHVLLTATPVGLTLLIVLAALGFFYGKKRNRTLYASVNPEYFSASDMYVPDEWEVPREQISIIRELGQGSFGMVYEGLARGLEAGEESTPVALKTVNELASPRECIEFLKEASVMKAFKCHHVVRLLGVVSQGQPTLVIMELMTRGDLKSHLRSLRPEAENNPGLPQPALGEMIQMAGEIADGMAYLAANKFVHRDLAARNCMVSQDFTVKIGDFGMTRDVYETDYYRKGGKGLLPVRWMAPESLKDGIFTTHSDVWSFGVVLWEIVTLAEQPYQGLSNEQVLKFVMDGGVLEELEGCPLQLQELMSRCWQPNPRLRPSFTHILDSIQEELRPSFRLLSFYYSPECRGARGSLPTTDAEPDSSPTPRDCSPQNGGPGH

[7] = biological target: Mitogen-activated protein kinase 7 (Homo sapiens, UniProt Q13164)
Mitogen-activated protein kinase 7, sequence (Q13164 whole entry): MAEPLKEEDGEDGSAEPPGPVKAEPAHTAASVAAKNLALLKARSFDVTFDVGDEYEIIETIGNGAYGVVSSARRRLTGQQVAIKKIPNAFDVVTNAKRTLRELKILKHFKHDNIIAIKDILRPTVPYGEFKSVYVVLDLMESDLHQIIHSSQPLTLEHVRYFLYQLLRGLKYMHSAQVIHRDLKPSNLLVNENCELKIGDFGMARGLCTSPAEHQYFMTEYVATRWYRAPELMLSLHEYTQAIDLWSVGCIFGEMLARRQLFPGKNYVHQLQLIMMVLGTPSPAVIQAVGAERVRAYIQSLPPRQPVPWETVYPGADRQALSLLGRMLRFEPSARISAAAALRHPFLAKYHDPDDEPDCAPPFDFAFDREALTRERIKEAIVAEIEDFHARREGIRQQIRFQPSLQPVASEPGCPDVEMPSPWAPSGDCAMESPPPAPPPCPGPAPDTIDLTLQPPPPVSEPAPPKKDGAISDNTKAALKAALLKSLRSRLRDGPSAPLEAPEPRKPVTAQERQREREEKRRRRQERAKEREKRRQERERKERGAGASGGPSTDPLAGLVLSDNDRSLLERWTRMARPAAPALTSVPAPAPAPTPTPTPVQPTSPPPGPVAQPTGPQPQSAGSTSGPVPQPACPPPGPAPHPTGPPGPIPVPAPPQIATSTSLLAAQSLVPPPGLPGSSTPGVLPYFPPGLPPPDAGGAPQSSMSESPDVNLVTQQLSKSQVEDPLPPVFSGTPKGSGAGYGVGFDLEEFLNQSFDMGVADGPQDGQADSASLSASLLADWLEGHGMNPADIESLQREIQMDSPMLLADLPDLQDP

Ephrin type-A receptor 7 = Ephrin type-A receptor 7 (Homo sapiens, UniProt Q15375)
Ephrin type-A receptor 7, sequence (Q15375 whole entry): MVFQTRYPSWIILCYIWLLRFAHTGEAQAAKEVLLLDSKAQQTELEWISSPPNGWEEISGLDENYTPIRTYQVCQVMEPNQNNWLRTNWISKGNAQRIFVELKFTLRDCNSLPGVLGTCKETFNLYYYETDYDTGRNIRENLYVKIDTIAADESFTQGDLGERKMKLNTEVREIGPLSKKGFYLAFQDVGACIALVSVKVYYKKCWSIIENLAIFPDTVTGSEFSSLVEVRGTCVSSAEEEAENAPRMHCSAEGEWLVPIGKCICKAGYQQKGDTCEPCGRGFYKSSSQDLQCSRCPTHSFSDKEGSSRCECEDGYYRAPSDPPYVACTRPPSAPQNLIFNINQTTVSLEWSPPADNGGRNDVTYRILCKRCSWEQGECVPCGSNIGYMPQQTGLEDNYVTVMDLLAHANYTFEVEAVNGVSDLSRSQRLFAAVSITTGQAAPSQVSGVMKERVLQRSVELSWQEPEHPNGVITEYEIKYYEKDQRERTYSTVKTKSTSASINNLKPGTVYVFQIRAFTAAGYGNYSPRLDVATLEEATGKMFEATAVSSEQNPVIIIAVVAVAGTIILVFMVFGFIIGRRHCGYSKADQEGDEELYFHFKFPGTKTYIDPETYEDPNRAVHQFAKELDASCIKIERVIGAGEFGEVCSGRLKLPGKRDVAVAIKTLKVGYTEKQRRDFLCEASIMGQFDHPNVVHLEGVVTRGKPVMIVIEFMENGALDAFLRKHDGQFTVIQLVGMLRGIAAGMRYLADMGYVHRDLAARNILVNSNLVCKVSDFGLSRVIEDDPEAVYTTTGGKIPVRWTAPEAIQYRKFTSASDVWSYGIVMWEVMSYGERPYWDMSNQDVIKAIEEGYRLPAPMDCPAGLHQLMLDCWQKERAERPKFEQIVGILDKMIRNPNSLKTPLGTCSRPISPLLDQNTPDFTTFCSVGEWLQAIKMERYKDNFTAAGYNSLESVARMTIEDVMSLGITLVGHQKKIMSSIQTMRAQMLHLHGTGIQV

Activin receptor type-1B = biological target: T3, Activin receptor type-1B (Homo sapiens, UniProt P36896)
T3 sequence (P36896 whole entry): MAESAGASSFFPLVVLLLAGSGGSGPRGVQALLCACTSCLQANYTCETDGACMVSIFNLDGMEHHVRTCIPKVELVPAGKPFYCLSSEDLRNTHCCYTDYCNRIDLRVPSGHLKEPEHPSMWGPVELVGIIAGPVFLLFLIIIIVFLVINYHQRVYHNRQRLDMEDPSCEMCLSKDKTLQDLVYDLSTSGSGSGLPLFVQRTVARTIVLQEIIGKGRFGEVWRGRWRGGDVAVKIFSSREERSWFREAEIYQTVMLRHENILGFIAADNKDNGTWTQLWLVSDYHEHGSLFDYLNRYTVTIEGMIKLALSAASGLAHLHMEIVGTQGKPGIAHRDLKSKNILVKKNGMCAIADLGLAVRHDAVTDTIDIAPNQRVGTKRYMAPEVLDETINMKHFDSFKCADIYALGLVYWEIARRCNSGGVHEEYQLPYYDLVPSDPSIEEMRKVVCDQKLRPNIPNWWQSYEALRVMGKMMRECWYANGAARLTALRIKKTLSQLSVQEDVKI

[8] = biological target: Dual specificity mitogen-activated protein kinase kinase 2 (Homo sapiens, UniProt P36507)
Dual specificity mitogen-activated protein kinase kinase 2, sequence (P36507 whole entry): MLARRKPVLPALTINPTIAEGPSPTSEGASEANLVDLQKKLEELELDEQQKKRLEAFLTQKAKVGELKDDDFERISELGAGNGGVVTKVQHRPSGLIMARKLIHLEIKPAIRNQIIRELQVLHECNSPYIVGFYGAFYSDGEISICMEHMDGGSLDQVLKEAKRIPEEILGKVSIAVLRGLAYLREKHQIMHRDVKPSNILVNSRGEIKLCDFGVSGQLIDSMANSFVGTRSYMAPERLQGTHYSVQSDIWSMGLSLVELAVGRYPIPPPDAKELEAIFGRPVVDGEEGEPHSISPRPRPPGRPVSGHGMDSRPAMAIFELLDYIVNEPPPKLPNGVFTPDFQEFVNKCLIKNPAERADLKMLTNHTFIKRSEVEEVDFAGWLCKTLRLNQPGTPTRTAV

Tyrosine-protein kinase Fgr, sequence (P09769 whole entry): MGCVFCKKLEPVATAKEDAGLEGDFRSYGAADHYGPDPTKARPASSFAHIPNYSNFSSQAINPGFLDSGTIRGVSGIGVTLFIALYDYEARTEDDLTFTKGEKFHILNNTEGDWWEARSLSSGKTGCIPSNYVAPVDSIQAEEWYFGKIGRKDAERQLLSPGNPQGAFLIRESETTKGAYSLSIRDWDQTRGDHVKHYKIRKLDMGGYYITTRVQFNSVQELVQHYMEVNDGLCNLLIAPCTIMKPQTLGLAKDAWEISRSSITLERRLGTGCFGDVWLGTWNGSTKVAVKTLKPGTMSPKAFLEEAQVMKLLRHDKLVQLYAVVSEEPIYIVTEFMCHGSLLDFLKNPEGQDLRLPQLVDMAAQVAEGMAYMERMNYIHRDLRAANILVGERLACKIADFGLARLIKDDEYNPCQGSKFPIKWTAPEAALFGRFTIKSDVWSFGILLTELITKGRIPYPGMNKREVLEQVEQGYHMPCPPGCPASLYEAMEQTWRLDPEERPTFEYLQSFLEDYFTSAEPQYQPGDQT

| SMILES | Kd [1] | Kd [2] | Kd [3] | Kd [4] | Kd [5] | Kd [6] | Kd [7] | Kd (Ephrin type-A receptor 7) | Kd (Activin receptor type-1B) | Kd [8] |
| --- | --- | --- | --- | --- | --- | --- | --- | --- | --- | --- |
| COCC(=O)NC/C=C/c1ccc2ncnc(Nc3ccc(Oc4ccc(C)nc4)c(C)c3)c2c1 [CP-724714] | > 10 µM | > 10 µM | > 10 µM | > 10 µM | > 10 µM | > 10 µM | > 10 µM | > 10 µM | > 10 µM | > 10 µM |
| CCOc1cc2ncc(C#N)c(Nc3ccc(F)c(Cl)c3)c2cc1NC(=O)/C=C/CN(C)C [PELITINIB] | 2.8 µM | 0.95 µM | > 10 µM | > 10 µM | 1.3 µM | > 10 µM | > 10 µM | > 10 µM | > 10 µM | – |
| NC(=O)c1ccc(-c2nc(-c3ccc4c(c3)OCO4)c(-c3ccccn3)[nH]2)cc1 [SB-431542] | – | > 10 µM | > 10 µM | > 10 µM | > 10 µM | > 10 µM | > 10 µM | > 10 µM | – | > 10 µM |
| Nc1nc(Nc2ccc(S(N)(=O)=O)cc2)nn1C(=O)c1c(F)cccc1F [JNJ-7706621] | – | – | > 10 µM | – | – | > 10 µM | – | 3.1 µM | > 10 µM | – |
| Oc1ccc(-c2nc(-c3ccncc3)c(-c3ccc(F)cc3)[nH]2)cc1 [SB-202190] | > 10 µM | > 10 µM | > 10 µM | > 10 µM | > 10 µM | > 10 µM | > 10 µM | > 10 µM | 0.95 µM | 9.6 µM |
